Results taken from paper PMC9516332 (Frontiers in Oncology, 2022).

What was measured:
Assay in all cases: Kinase panel profiling at 1 µmol/L (MSA or IMAP), percentage inhibition
Assay type in all cases: biochemical
[1] = molecular target: panel of 255 wild-type kinases (Homo sapiens, UniProt Q9UBS0); settings: p70S6Kβ; 1 µmol/L single concentration; read-out: %-inhibition, p70S6Kβ
[2] = molecular target: T1, panel of 255 wild-type kinases (Homo sapiens, UniProt O14757); settings: CHK1 kinase assay; 1 µmol/L single concentration; read-out: %-inhibition CHK1
T1 sequence (O14757 1-476): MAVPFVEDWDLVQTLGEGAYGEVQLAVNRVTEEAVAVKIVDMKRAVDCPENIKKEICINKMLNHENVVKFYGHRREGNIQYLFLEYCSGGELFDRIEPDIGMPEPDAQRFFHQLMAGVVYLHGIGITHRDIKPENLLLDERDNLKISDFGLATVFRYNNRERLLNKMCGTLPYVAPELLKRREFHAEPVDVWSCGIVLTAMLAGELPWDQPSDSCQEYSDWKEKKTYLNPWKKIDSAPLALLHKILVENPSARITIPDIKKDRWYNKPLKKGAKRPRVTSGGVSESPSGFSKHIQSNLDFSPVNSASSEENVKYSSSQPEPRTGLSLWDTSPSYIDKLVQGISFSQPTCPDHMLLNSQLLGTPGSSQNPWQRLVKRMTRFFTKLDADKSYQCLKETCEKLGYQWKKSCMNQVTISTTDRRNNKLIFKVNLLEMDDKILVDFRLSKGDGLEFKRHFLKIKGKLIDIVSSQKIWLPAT

[3] = molecular target: T2, panel of 255 wild-type kinases (Homo sapiens, UniProt O15264); settings: p38δ; 1 µmol/L single concentration; read-out: %-inhibition, p38δ
T2 sequence (O15264 1-365): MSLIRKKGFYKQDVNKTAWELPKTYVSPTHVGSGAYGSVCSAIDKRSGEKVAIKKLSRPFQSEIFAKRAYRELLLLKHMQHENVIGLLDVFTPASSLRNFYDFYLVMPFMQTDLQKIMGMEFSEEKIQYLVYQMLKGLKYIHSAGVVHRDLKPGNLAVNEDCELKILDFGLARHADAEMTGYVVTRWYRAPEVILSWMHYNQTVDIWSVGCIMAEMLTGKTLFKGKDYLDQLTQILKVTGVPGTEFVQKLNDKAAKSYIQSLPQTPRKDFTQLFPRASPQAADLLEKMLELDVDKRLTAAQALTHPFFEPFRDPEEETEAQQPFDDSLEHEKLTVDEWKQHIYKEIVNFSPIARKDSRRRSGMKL

[4] = molecular target: panel of 255 wild-type kinases (Homo sapiens, UniProt O14578); settings: kinase CRIK; 1 µmol/L single concentration; read-out: %-inhibition at 1 µmol/L, CRIK
[5] = molecular target: panel of 255 wild-type kinases (Homo sapiens, UniProt P08069); settings: kinase IGF1R; 1 µmol/L single concentration; read-out: %-inhibition at 1 µmol/L, IGF1R
[6] = molecular target: T3, panel of 255 wild-type kinases (Homo sapiens, UniProt P51813); settings: BMX kinase assay; 1 µmol/L single concentration; read-out: %-inhibition BMX
T3 sequence (P51813 1-675): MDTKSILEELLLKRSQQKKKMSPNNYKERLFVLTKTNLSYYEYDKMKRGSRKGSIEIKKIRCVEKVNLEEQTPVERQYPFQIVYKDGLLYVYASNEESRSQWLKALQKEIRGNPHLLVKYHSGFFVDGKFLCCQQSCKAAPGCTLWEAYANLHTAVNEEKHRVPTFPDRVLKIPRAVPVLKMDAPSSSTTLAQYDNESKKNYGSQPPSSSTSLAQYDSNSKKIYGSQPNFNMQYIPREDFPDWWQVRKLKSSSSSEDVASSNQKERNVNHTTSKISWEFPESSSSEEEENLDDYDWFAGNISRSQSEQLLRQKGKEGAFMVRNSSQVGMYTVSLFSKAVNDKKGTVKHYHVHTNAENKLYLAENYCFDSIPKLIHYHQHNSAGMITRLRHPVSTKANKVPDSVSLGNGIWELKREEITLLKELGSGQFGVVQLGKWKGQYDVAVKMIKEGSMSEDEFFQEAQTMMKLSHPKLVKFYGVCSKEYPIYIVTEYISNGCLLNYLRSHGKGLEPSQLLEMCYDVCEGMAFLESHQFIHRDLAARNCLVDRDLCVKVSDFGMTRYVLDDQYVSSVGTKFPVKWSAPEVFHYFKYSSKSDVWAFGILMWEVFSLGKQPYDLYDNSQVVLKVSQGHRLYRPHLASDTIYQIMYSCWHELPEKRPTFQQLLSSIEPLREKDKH

[7] = molecular target: panel of 255 wild-type kinases (Homo sapiens, UniProt Q9HBH9); settings: MNK2; 1 µmol/L single concentration; read-out: %-inhibition, MNK2
[8] = molecular target: panel of 255 wild-type kinases (Homo sapiens, UniProt P57059); settings: kinase SIK; 1 µmol/L single concentration; read-out: %-inhibition at 1 µmol/L, SIK
[9] = molecular target: panel of 255 wild-type kinases (Homo sapiens, UniProt Q07912); settings: ACK kinase assay; 1 µmol/L single concentration; read-out: %-inhibition ACK
[10] = molecular target: panel of 255 wild-type kinases (Homo sapiens, UniProt P49674); settings: kinase CK1ε; 1 µmol/L single concentration; read-out: %-inhibition at 1 µmol/L, CK1ε

Structure (SMILES) | inhibition at 1 µM [1] [%] | inhibition at 1 µM [2] [%] | inhibition at 1 µM [3] [%] | inhibition at 1 µM [4] [%] | inhibition at 1 µM [5] [%] | inhibition at 1 µM [6] [%] | inhibition at 1 µM [7] [%] | inhibition at 1 µM [8] [%] | inhibition at 1 µM [9] [%] | inhibition at 1 µM [10] [%]
CO[C@]1(C(=O)N[C@@H](C)c2ccc(-n3cc(F)cn3)nc2)CC[C@H](c2nc(C)cc(Nc3cc(C)[nH]n3)n2)CC1 [pralsetinib] | 5.54 | 11 | 0.0555 | -0.417 | 10 | 82 | 2 | 1.69 | 84 | -3
CCn1c(=O)c(-c2cc(NC(=O)Nc3ccccc3)c(F)cc2Br)cc2cnc(NC)cc21 [ripretinib] | 2.19 | 3.57 | -0.186 | 20 | 3.34 | 60 | 5 | 66 | 23 | 1.8
COc1ccc(CN2C3CC2CN(c2ccc(-c4cc(OCC(C)(C)O)cn5ncc(C#N)c45)cn2)C3)cn1 [selpercatinib] | 6.63 | 29 | -6.33 | -4.75 | 3 | 12 | 37 | 9 | 4.48 | 2.36
Cn1cnc2c(F)c(Nc3ccc(Br)cc3Cl)c(C(=O)NOCCO)cc21 [selumetinib] | 8 | 2.73 | -4 | -2.33 | 5.57 | 2.24 | -0.47 | -3 | 0.731 | -0.361
Cc1cc(Nc2ncnc3ccc(NC4=NC(C)(C)CO4)cc23)ccc1Oc1ccn2ncnc2c1 [tucatinib] | 3.57 | 5.71 | -0.0555 | -2.49 | 2.31 | 6.62 | 8 | 0.717 | 9 | 0.505
